Reference: paper PMC12498271, “A First-In-Human Dose-Escalation Phase I Study of Basroparib, a Tankyrase Inhibitor, in Patients with Advanced-Stage Solid Tumors” (Cancer Research Communications, 2025)
Entries after “also recorded” stand apart in the source; their conditions may differ. Marks after values point to notes of the source that are not given here.

Assays:
[1] = phase I dose escalation: safety and tolerability (NCI CTCAE v5.0); format: in vivo
Protocol: This study was a phase I, open-label, dose-escalation, multicenter trial conducted in patients with advanced-stage solid tumors in three clinical sites located in the United States. A classic “3 + 3” method was utilized for patient enrollment starting from cohort 1 (30 mg) up to cohort 7 (360 mg). In each cohort, patients were given basroparib capsules orally once daily on a 21-day treatment period, followed by a 7-day off period in 28-day cycles until there seemed evidence of progressive disease, intolerable toxicity, or discontinuation or withdrawal for other reasons. A safety monitoring committee (SMC) composed of the principal investigators, sponsor’s representatives, and designated medical monitor reviewed the safety, tolerability, and PK of each dose level and delivered consensus decisions for dose escalations, maximum tolerated dose (MTD), and recommended phase II dose (RP2D). Study objectives and endpoints are provided in Supplementary Table S1.
Adverse events (AE) and toxicity severity were evaluated according to the National Cancer Institute (NCI) Common Terminology Criteria for Adverse Events version 5.0. The dose-limiting toxicities were defined as any of the following AEs that are possibly, probably, or definitely related to the study drug occurring during cycle 1 (28 days): any death not clearly due to the underlying disease or extraneous causes; neutropenic fever; grade 4 or higher neutropenia or thrombocytopenia over 7 days; grade 3 or higher thrombocytopenia with clinically significant bleeding; for patients with hepatic metastases, aspartate aminotransferase (AST) or alanine aminotransferase (ALT) >8-fold of the upper limit of normal range (ULN) or AST or ALT >5-fold of ULN for 14 days or longer; for patients with hepatic metastases, grade 3 or higher elevation in AST and/or ALT >5-fold of ULN of any duration; and AST or ALT >3-fold of ULN and concurrent total bilirubin >2-fold of ULN of any duration without initial findings of cholestasis (elevated alkaline phosphatase, e.g., findings consistent with the Hy law or US Food and Drug Administration definition of potential study drug–induced liver injury). Medical Dictionary for […] version 26.1 was used for safety coding.

[2] = phase I plasma pharmacokinetics (HPLC-MS/MS, non-compartmental); format: in vivo, human; settings: for AUC0–6 / AUClast / Cmax / Tmax / t1/2: Day 1; for Tmax: median (min, max); for t1/2: arithmetic mean (±SD)
Protocol: Blood samples for PK analysis were collected with K2EDTA tubes in serial before dose and at 0.25, 0.5, 1, 1.5, 2, 3, 4, 6, 8, 12, and 24 hours after dose on cycle 1 day 1 and before dose and at 1, 2, 3, 4, and 6 hours after dose on cycle 1 day 8 and before dose on days 1 and 15 of cycle 2 and beyond. Plasma concentrations of basroparib and its major metabolite, STP06-1007, were determined using the validated high-performance liquid chromatography/tandem mass spectrometry method at the bioanalytic laboratory (Celerion, Inc.). The analytic range (lower limit of quantitation – upper limit of quantitation) for basroparib and STP06-1007 was 0.05 to 250 ng/mL. Non-compartmental PK parameters were calculated using Phoenix WinNonlin version 8.4.0 (Certara).

[3] = Cohort 1 (30 mg, once daily) N = 3, geometric mean (geometric CV%)
[4] = Cohort 2 (60 mg, once daily) N = 4, geometric mean (geometric CV%)
[5] = Cohort 3 (120 mg, once daily) N = 3, geometric mean (geometric CV%)
[6] = Cohort 4 (180 mg, once daily) N = 5
[7] = Cohort 4 (180 mg, once daily) N = 5, geometric mean (geometric CV%)
[8] = Cohort 5 (240 mg, once daily) N = 3, geometric mean (geometric CV%)
[9] = Cohort 6 (300 mg, once daily) N = 3, geometric mean (geometric CV%)
[10] = Cohort 7 (360 mg, once daily) N = 4
[11] = Cohort 7 (360 mg, once daily) N = 4, geometric mean (geometric CV%)
[12] = Day 8, Cohort 1 (30 mg, once daily) N = 3, geometric mean (geometric CV%)

SMILES: COCCOc1cc(F)c(N2CCN(c3nc4c(nnn4C)c(=O)[nH]3)CC2)c(F)c1 [basroparib]
- TRAEs in musculoskeletal and connective tissue disorders ([1]; all dose levels): No TRAEs in musculoskeletal and connective tissue disorders were observed
- grade 5 (fatal) TRAEs ([1]; all dose levels): not observed; also recorded: No grade 5 TRAEs were reported
- maximum tolerated dose (MTD) ([1]; human, in vivo, po): 360 mg
- TRAE fatigue, frequency ([1]; in vivo): 28%
- TRAE lymphocyte count decrease, frequency ([1]; in vivo): 8%
- TRAE nausea, frequency ([1]; in vivo): 12%
- dual-energy x-ray absorptiometry, changes in paired T-score and Z-score ([1]; in vivo): did not show any clinically meaningful changes
- patients with at least one treatment-emergent AE ([1]; in vivo): 96%
- serious AEs considered possibly related to basroparib ([1]; in vivo): two
- treatment-emergent AEs classified as grade 1 ([1]; in vivo): 50%
- treatment-emergent AEs classified as grade 2 ([1]; in vivo): 33.7%
- recommended phase II dose (RP2D) ([1]; in vivo, po): 360 mg
- exposure following 360 mg dose compared with 300 mg dose ([2]; Cmax and AUCs): slightly lower
- AUC0–6 [2, 3]: 2,464.7 (50.60) hours × ng/mL
- AUClast [2, 3]: 4,845.4 (50.38) hours × ng/mL
- Cmax [2, 3]: 720.7 (37.01) ng/mL
- Tmax ([2]; Cohort 1 (30 mg, once daily) N = 3): 3.0 (3, 3) hours
- t1/2 ([2]; Cohort 1 (30 mg, once daily), two patients): 6.0 (±3.69)^a hours
- AUC0–6 [2, 4]: 3,169.7 (44.98) hours × ng/mL
- AUClast [2, 4]: 6,415.2 (69.39) hours × ng/mL
- Cmax [2, 4]: 968.3 (30.69) ng/mL
- Tmax ([2]; Cohort 2 (60 mg, once daily) N = 4): 3.0 (3, 4) hours
- t1/2 ([2]; Cohort 2 (60 mg, once daily), three patients): 11.0 (±5.33)^b hours
- AUC0–6 [2, 5]: 5,425.0 (51.50) hours × ng/mL
- AUClast [2, 5]: 15,835.9 (25.14) hours × ng/mL
- Cmax [2, 5]: 1,532.4 (68.26) ng/mL
- Tmax ([2]; Cohort 3 (120 mg, once daily) N = 3): 3.0 (3, 24) hours
- t1/2 ([2]; Cohort 3 (120 mg, once daily), two patients): 7.6 (±0.42)^a hours
- t1/2 [2, 6]: 7.7 (±3.13) hours
- AUC0–6 [2, 7]: 8,233.8 (67.46) hours × ng/mL
- AUClast [2, 7]: 16,504.6 (61.80) hours × ng/mL
- Cmax [2, 7]: 2,345.5 (68.30) ng/mL
- Tmax [2, 6]: 3.0 (2, 3) hours
- AUC0–6 [2, 8]: 7,622.5 (57.67) hours × ng/mL
- AUClast [2, 8]: 15,893.0 (18.35) hours × ng/mL
- Cmax [2, 8]: 2,417.1 (54.86) ng/mL
- Tmax ([2]; Cohort 5 (240 mg, once daily) N = 3): 3.0 (2, 6) hours
- t1/2 ([2]; Cohort 5 (240 mg, once daily), two patients): 6.0 (±0.39)^a hours
- AUC0–6 [2, 9]: 10,968.4 (109.20) hours × ng/mL
- AUClast [2, 9]: 24,221.3 (103.59) hours × ng/mL
- Cmax [2, 9]: 2,894.1 (115.67) ng/mL
- Tmax ([2]; Cohort 6 (300 mg, once daily) N = 3): 3.0 (2, 4) hours
- t1/2 ([2]; Cohort 6 (300 mg, once daily), two patients): 6.2 (±2.70)^a hours
- t1/2 [2, 10]: 5.8 (±0.94) hours
- AUC0–6 [2, 11]: 9,022.0 (45.09) hours × ng/mL
- AUClast [2, 11]: 19,692.3 (32.54) hours × ng/mL
- Cmax [2, 11]: 2,779.1 (46.78) ng/mL
- Tmax [2, 10]: 3.5 (3, 6) hours
- AUC0–6,ss [2, 12]: 2,584.9 (22.71) hours × ng/mL
- Cmax,ss [2, 12]: 789.0 (5.20) ng/mL
